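Cultured in 96-well plates, cells were exposed to test compound for 48 hours across five concentrations. GI50 = concentration required for 50% inhibition of growth.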 Calls of active or inactive are those of the source. No stated cut-off is given here; in the data, active = GI50 up to about 1.1 µM and inactive = higher.
What was measured:
Experiment in all cases: NCI tumour cell line growth inhibition, 48 h
SF-539 = tested on: SF-539
DLD-1 = tested on: DLD-1
MOLT-4 = tested on: MOLT-4
OVCAR-4 = tested on: OVCAR-4
SF-295 = tested on: SF-295
COLO 205 = tested on: COLO 205
RPMI-8226 = tested on: RPMI-8226
NCI-H460 = tested on: NCI-H460
A549 = tested on: A549
SK-OV-3 = tested on: SK-OV-3
SNB-78 = tested on: SNB-78
RXF 631 = tested on: RXF 631
KM-20L2 = tested on: KM-20L2
OVCAR-3 = tested on: OVCAR-3
HCT-15 = tested on: HCT-15
M14 = tested on: M14
SN12C = tested on: SN12C
M19-MEL = tested on: M19-MEL
EKVX = tested on: EKVX
HCC 2998 = tested on: HCC 2998
OVCAR-8 = tested on: OVCAR-8
LXFL 529 = tested on: LXFL 529
CCRF-CEM = tested on: CCRF-CEM
NCI-H23 = tested on: NCI-H23
SNB-75 = tested on: SNB-75
UO-31 = tested on: UO-31
CAKI-1 = tested on: CAKI-1
SNB-19 = tested on: SNB-19
DMS-114 = tested on: DMS-114
RXF 393 = tested on: RXF 393
HOP-18 = tested on: HOP-18
HT-29 = tested on: HT-29
K562 = tested on: K562
IGROV-1 = tested on: IGROV-1
SF-268 = tested on: SF-268
TK-10 = tested on: TK-10
DMS-273 = tested on: DMS-273
A498 = tested on: A498
786-0 = tested on: 786-0
HOP-62 = tested on: HOP-62
SR = tested on: SR
NCI-H522 = tested on: NCI-H522
OVCAR-5 = tested on: OVCAR-5
KM12 = tested on: KM12
Malme-3M = tested on: Malme-3M
SK-MEL-5 = tested on: SK-MEL-5
HCT-116 = tested on: HCT-116
NCI-H226 = tested on: NCI-H226
UACC-62 = tested on: UACC-62
ACHN = tested on: ACHN
HOP-92 = tested on: HOP-92
LOX IMVI = tested on: LOX IMVI
UACC-257 = tested on: UACC-257
SW-620 = tested on: SW-620
U-251 = tested on: U-251
HL-60 = tested on: HL-60
SK-MEL-2 = tested on: SK-MEL-2
SK-MEL-28 = tested on: SK-MEL-28
XF498 = tested on: XF498

With `Cc1oc2c(C)c3oc(=O)cc(C)c3cc2c1CN1C(=O)C2OCCOCCOCCOCCOCCO[C@H]2C1=O` (some centres not stated) the GI50 (SF-539) was > 100 µM (inactive), the GI50 (DLD-1) was > 100 µM (inactive) and the GI50 (MOLT-4) was > 100 µM (inactive). The GI50 (OVCAR-4) was > 100 µM (inactive), the GI50 (SF-295) was > 100 µM (inactive) and the GI50 (COLO 205) was > 100 µM (inactive). For the same compound, the GI50 (RPMI-8226) was > 100 µM (inactive), the GI50 (NCI-H460) was > 100 µM (inactive) and the GI50 (A549) was > 100 µM (inactive). The GI50 (SK-OV-3) was > 100 µM (inactive), the GI50 (SNB-78) was > 100 µM (inactive) and the GI50 (RXF 631) was 26.7 µM (inactive). The GI50 (KM-20L2) was > 100 µM (inactive), the GI50 (OVCAR-3) was > 100 µM (inactive) and the GI50 (HCT-15) was greater than 100 µM. The GI50 (M14) was > 100 µM (inactive), the GI50 (SN12C) was > 100 µM (inactive) and the GI50 (M19-MEL) was > 100 µM (inactive). The GI50 (EKVX) was > 100 µM (inactive), the GI50 (HCC 2998) was > 100 µM (inactive) and the GI50 (OVCAR-8) was > 100 µM (inactive). The GI50 (LXFL 529) was > 100 µM (inactive), the GI50 (CCRF-CEM) was > 100 µM (inactive) and the GI50 (NCI-H23) was > 100 µM (inactive). For the same compound, the GI50 (SNB-75) was > 100 µM (inactive), the GI50 (UO-31) was > 100 µM (inactive) and the GI50 (CAKI-1) was > 100 µM (inactive). The GI50 (SNB-19) was > 100 µM (inactive), the GI50 (DMS-114) was > 100 µM (inactive) and the GI50 (RXF 393) was > 100 µM (inactive). For the same compound, the GI50 (HOP-18) was > 100 µM (inactive), the GI50 (HT-29) was > 100 µM (inactive) and the GI50 (K562) was > 100 µM (inactive). For the same compound, the GI50 (IGROV-1) was > 100 µM (inactive), the GI50 (SF-268) was > 100 µM (inactive) and the GI50 (TK-10) was > 100 µM (inactive). The GI50 (DMS-273) was > 100 µM (inactive), the GI50 (A498) was > 100 µM (inactive) and the GI50 (786-0) was > 100 µM (inactive). The GI50 (HOP-62) was > 100 µM (inactive), the GI50 (SR) was > 100 µM (inactive) and the GI50 (NCI-H522) was > 100 µM (inactive). The GI50 (OVCAR-5) was > 100 µM (inactive), the GI50 (KM12) was > 100 µM (inactive) and the GI50 (Malme-3M) was > 100 µM (inactive). For the same compound, the GI50 (SK-MEL-5) was > 100 µM (inactive), the GI50 (HCT-116) was > 100 µM (inactive) and the GI50 (NCI-H226) was > 100 µM (inactive). The GI50 (UACC-62) was > 100 µM (inactive), the GI50 (ACHN) was > 100 µM (inactive) and the GI50 (HOP-92) was > 100 µM (inactive). For the same compound, the GI50 (LOX IMVI) was > 100 µM (inactive), the GI50 (UACC-257) was > 100 µM (inactive) and the GI50 (SW-620) was > 100 µM (inactive). For the same compound, the GI50 (U-251) was > 100 µM (inactive) and the GI50 (HL-60) was > 100 µM (inactive).

`O=C(NCCO)c1cc2c(cn1)[nH]c1ccccc12` was tested, and the GI50 (SF-539) was > 100 µM (inactive), the GI50 (DLD-1) was 24.7 µM (inactive) and the GI50 (SK-MEL-2) was 16.8 µM (inactive). The GI50 (MOLT-4) was > 100 µM (inactive), the GI50 (OVCAR-4) was > 100 µM (inactive) and the GI50 (SF-295) was > 100 µM (inactive). For the same compound, the GI50 (COLO 205) was > 100 µM (inactive), the GI50 (RPMI-8226) was > 100 µM (inactive) and the GI50 (NCI-H460) was > 100 µM (inactive). For the same compound, the GI50 (A549) was > 100 µM (inactive), the GI50 (SK-OV-3) was > 100 µM (inactive) and the GI50 (SK-MEL-28) was > 100 µM (inactive). For the same compound, the GI50 (SNB-78) was > 100 µM (inactive), the GI50 (RXF 631) was > 100 µM (inactive) and the GI50 (KM-20L2) was > 100 µM (inactive). For the same compound, the GI50 (OVCAR-3) was > 100 µM (inactive), the GI50 (HCT-15) was greater than 100 µM and the GI50 (M14) was > 100 µM (inactive). For the same compound, the GI50 (SN12C) was > 100 µM (inactive), the GI50 (EKVX) was > 100 µM (inactive) and the GI50 (HCC 2998) was 16.9 µM (inactive). The GI50 (OVCAR-8) was > 100 µM (inactive), the GI50 (LXFL 529) was > 100 µM (inactive) and the GI50 (CCRF-CEM) was > 100 µM (inactive). For the same compound, the GI50 (NCI-H23) was > 100 µM (inactive), the GI50 (SNB-75) was 69.5 µM (inactive) and the GI50 (UO-31) was > 100 µM (inactive). The GI50 (CAKI-1) was > 100 µM (inactive), the GI50 (SNB-19) was > 100 µM (inactive) and the GI50 (DMS-114) was > 100 µM (inactive). The GI50 (RXF 393) was > 100 µM (inactive), the GI50 (HT-29) was > 100 µM (inactive) and the GI50 (K562) was > 100 µM (inactive). For the same compound, the GI50 (IGROV-1) was > 100 µM (inactive), the GI50 (SF-268) was > 100 µM (inactive) and the GI50 (TK-10) was > 100 µM (inactive). For the same compound, the GI50 (DMS-273) was > 100 µM (inactive), the GI50 (A498) was > 100 µM (inactive) and the GI50 (XF498) was > 100 µM (inactive). For the same compound, the GI50 (786-0) was 17.4 µM (inactive), the GI50 (HOP-62) was 17.9 µM (inactive) and the GI50 (NCI-H522) was > 100 µM (inactive). The GI50 (OVCAR-5) was > 100 µM (inactive), the GI50 (KM12) was > 100 µM (inactive) and the GI50 (Malme-3M) was 22.1 µM (inactive). For the same compound, the GI50 (SK-MEL-5) was > 100 µM (inactive), the GI50 (HCT-116) was > 100 µM (inactive) and the GI50 (NCI-H226) was > 100 µM (inactive). The GI50 (UACC-62) was > 100 µM (inactive), the GI50 (ACHN) was > 100 µM (inactive) and the GI50 (HOP-92) was > 100 µM (inactive). The GI50 (LOX IMVI) was > 100 µM (inactive), the GI50 (UACC-257) was > 100 µM (inactive) and the GI50 (SW-620) was > 100 µM (inactive). The GI50 (U-251) was > 100 µM (inactive) and the GI50 (HL-60) was > 100 µM (inactive).
